# Laboratory results from PubChem BioAssay AID2060910 (Molecular Pharmacology Branch, DTP, NCI, 2025).
# Tested on: 242566-281-R-J2-PDC complex spheroid viability
# Assay: Anticancer human tumor 242566-281-R-J2-PDC patient-derived pancreatic carcinoma cell line growth inhibition [RAS]
# Conditions: for IC50: curve of first compound; for viability, T/C: stronger effect = lower value
# Outline: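 Tumour cells grown as complex spheroids with HUVEC endothelial cells and mesenchymal stem cells, treated with RAS pathway inhibitor combinations. Each agent spans half-log steps from near clinical Cmax, or 10 microM where Cmax is unknown.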
# [1] = second compound 0.000949 µM, first compound 0.0316 µM
# [2] = second compound 0.000949 µM, first compound 0.1 µM
# [3] = second compound 0.000949 µM, first compound 0.316 µM
# [4] = second compound 0.000949 µM, first compound 1 µM
# [5] = second compound 0.000949 µM, first compound 3.16 µM
# [6] = second compound 0.000949 µM, first compound 10 µM
# [7] = second compound 0.003 µM, first compound 0.0316 µM
# [8] = second compound 0.003 µM, first compound 0.1 µM
# [9] = second compound 0.003 µM, first compound 0.316 µM
# [10] = second compound 0.003 µM, first compound 1 µM
# [11] = second compound 0.003 µM, first compound 3.16 µM
# [12] = second compound 0.003 µM, first compound 10 µM
# [13] = second compound 0.00949 µM, first compound 0.0316 µM
# [14] = second compound 0.00949 µM, first compound 0.1 µM
# [15] = second compound 0.00949 µM, first compound 0.316 µM
# [16] = second compound 0.00949 µM, first compound 1 µM
# [17] = second compound 0.00949 µM, first compound 3.16 µM
# [18] = second compound 0.00949 µM, first compound 10 µM
# [19] = second compound 0.03 µM, first compound 0.0316 µM
# [20] = second compound 0.03 µM, first compound 0.1 µM
# [21] = second compound 0.03 µM, first compound 0.316 µM
# [22] = second compound 0.03 µM, first compound 1 µM
# [23] = second compound 0.03 µM, first compound 3.16 µM
# [24] = second compound 0.03 µM, first compound 10 µM
# [25] = second compound 0.0949 µM, first compound 0.0316 µM
# [26] = second compound 0.0949 µM, first compound 0.1 µM
# [27] = second compound 0.0949 µM, first compound 0.316 µM
# [28] = second compound 0.0949 µM, first compound 1 µM
# [29] = second compound 0.0949 µM, first compound 3.16 µM
# [30] = second compound 0.0949 µM, first compound 10 µM
# [31] = second compound 0.3 µM, first compound 0.0316 µM
# [32] = second compound 0.3 µM, first compound 0.1 µM
# [33] = second compound 0.3 µM, first compound 0.316 µM
# [34] = second compound 0.3 µM, first compound 1 µM
# [35] = second compound 0.3 µM, first compound 3.16 µM
# [36] = second compound 0.3 µM, first compound 10 µM
# 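Note: spheroids exposed to compound for 7 days before readout.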
# 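Throughout, for viability, T/C: 100% = DMSO vehicle control wells.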
smiles,measurement,setting,value
CCC(CC)c1cc(NC2CCC(N)C2)n2nccc2n1 (stereo unspecified) + CCn1c(-c2cccnc2C(C)OC)c2c3cc(ccc31)N1CCOC(CC(NC(=O)C(C(C)C)N(C)C(=O)C3(F)CCN(C(=O)C#CC(C)(C)N(C)C)CC3)C(=O)N3CCCC(N3)C(=O)OCC(C)(C)C2)C1,IC50,second compound 0.000949 µM,2760 nM
same,IC50,second compound 0.003 µM,2750 nM
same,IC50,second compound 0.00949 µM,2180 nM
same,IC50,second compound 0.03 µM,1870 nM
same,IC50,second compound 0.0949 µM,1670 nM
same,IC50,second compound 0.3 µM,1500 nM
same,"viability, T/C",[1],89.3%
same,"viability, T/C",[2],91.4%
same,"viability, T/C",[3],91.1%
same,"viability, T/C",[4],97.8%
same,"viability, T/C",[5],44.2%
same,"viability, T/C",[6],1.81%
same,"viability, T/C",[7],97.9%
same,"viability, T/C",[8],112%
same,"viability, T/C",[9],102%
same,"viability, T/C",[10],105%
same,"viability, T/C",[11],42.4%
same,"viability, T/C",[12],1.8%
same,"viability, T/C",[13],107%
same,"viability, T/C",[14],77.5%
same,"viability, T/C",[15],86.7%
same,"viability, T/C",[16],87.6%
same,"viability, T/C",[17],32%
same,"viability, T/C",[18],2.19%
same,"viability, T/C",[19],93.3%
same,"viability, T/C",[20],86.3%
same,"viability, T/C",[21],89.9%
same,"viability, T/C",[22],84.3%
same,"viability, T/C",[23],21.4%
same,"viability, T/C",[24],2.92%
same,"viability, T/C",[25],106%
same,"viability, T/C",[26],96.6%
same,"viability, T/C",[27],90%
same,"viability, T/C",[28],80.5%
same,"viability, T/C",[29],12.4%
same,"viability, T/C",[30],3.14%
same,"viability, T/C",[31],82.4%
same,"viability, T/C",[32],89.8%
same,"viability, T/C",[33],84.7%
same,"viability, T/C",[34],69.2%
same,"viability, T/C",[35],15.2%
same,"viability, T/C",[36],2.62%
C[C@@H](NC(=O)c1ncnc(N)c1Cl)c1ncc(C(=O)Nc2cc(C(F)(F)F)c(Cl)cn2)s1 + CCn1c(-c2cccnc2C(C)OC)c2c3cc(ccc31)N1CCOC(CC(NC(=O)C(C(C)C)N(C)C(=O)C3(F)CCN(C(=O)C#CC(C)(C)N(C)C)CC3)C(=O)N3CCCC(N3)C(=O)OCC(C)(C)C2)C1,IC50,second compound 0.000949 µM,> 10000 nM
same,IC50,second compound 0.003 µM,> 10000 nM
same,IC50,second compound 0.00949 µM,> 10000 nM
same,IC50,second compound 0.03 µM,> 10000 nM
same,IC50,second compound 0.0949 µM,> 10000 nM
same,IC50,second compound 0.3 µM,> 10000 nM
same,"viability, T/C",[1],126%
same,"viability, T/C",[2],107%
same,"viability, T/C",[3],112%
same,"viability, T/C",[4],103%
same,"viability, T/C",[5],107%
same,"viability, T/C",[6],63.8%
same,"viability, T/C",[7],106%
same,"viability, T/C",[8],100%
same,"viability, T/C",[9],106%
same,"viability, T/C",[10],105%
same,"viability, T/C",[11],97.3%
same,"viability, T/C",[12],87.7%
same,"viability, T/C",[13],113%
same,"viability, T/C",[14],104%
same,"viability, T/C",[15],95.1%
same,"viability, T/C",[16],115%
same,"viability, T/C",[17],91.8%
same,"viability, T/C",[18],83.1%
same,"viability, T/C",[19],105%
same,"viability, T/C",[20],90.8%
same,"viability, T/C",[21],109%
same,"viability, T/C",[22],90.6%
same,"viability, T/C",[23],77.3%
same,"viability, T/C",[24],101%
same,"viability, T/C",[25],94.9%
same,"viability, T/C",[26],105%
same,"viability, T/C",[27],90.7%
same,"viability, T/C",[28],105%
same,"viability, T/C",[29],69.8%
same,"viability, T/C",[30],98.1%
same,"viability, T/C",[31],90.8%
same,"viability, T/C",[32],84.5%
same,"viability, T/C",[33],108%
same,"viability, T/C",[34],88.1%
same,"viability, T/C",[35],85.5%
same,"viability, T/C",[36],86.7%
CCc1c2c(nc3ccc(O)cc13)-c1cc3c(c(=O)n1C2)COC(=O)[C@]3(O)CC + CCn1c(-c2cccnc2C(C)OC)c2c3cc(ccc31)N1CCOC(CC(NC(=O)C(C(C)C)N(C)C(=O)C3(F)CCN(C(=O)C#CC(C)(C)N(C)C)CC3)C(=O)N3CCCC(N3)C(=O)OCC(C)(C)C2)C1,IC50,second compound 0.000949 µM,18.1 nM
same,IC50,second compound 0.003 µM,16.9 nM
same,IC50,second compound 0.00949 µM,20.3 nM
same,IC50,second compound 0.03 µM,20 nM
same,IC50,second compound 0.0949 µM,18.8 nM
same,IC50,second compound 0.3 µM,11 nM
same,"viability, T/C","second compound 0.000949 µM, first compound 0.000949 µM",101%
same,"viability, T/C","second compound 0.000949 µM, first compound 0.003 µM",92.3%
same,"viability, T/C","second compound 0.000949 µM, first compound 0.00949 µM",59.5%
same,"viability, T/C","second compound 0.000949 µM, first compound 0.03 µM",39.7%
same,"viability, T/C","second compound 0.000949 µM, first compound 0.0949 µM",25.5%
same,"viability, T/C","second compound 0.000949 µM, first compound 0.3 µM",11.6%
same,"viability, T/C","second compound 0.003 µM, first compound 0.000949 µM",106%
same,"viability, T/C","second compound 0.003 µM, first compound 0.003 µM",79.5%
same,"viability, T/C","second compound 0.003 µM, first compound 0.00949 µM",63.7%
same,"viability, T/C","second compound 0.003 µM, first compound 0.03 µM",37.4%
same,"viability, T/C","second compound 0.003 µM, first compound 0.0949 µM",24.7%
same,"viability, T/C","second compound 0.003 µM, first compound 0.3 µM",10.6%
same,"viability, T/C","second compound 0.00949 µM, first compound 0.000949 µM",105%
same,"viability, T/C","second compound 0.00949 µM, first compound 0.003 µM",76.1%
same,"viability, T/C","second compound 0.00949 µM, first compound 0.00949 µM",68.5%
same,"viability, T/C","second compound 0.00949 µM, first compound 0.03 µM",45%
same,"viability, T/C","second compound 0.00949 µM, first compound 0.0949 µM",20.7%
same,"viability, T/C","second compound 0.00949 µM, first compound 0.3 µM",11.8%
same,"viability, T/C","second compound 0.03 µM, first compound 0.000949 µM",100%
same,"viability, T/C","second compound 0.03 µM, first compound 0.003 µM",79.5%
same,"viability, T/C","second compound 0.03 µM, first compound 0.00949 µM",73.9%
same,"viability, T/C","second compound 0.03 µM, first compound 0.03 µM",38.3%
same,"viability, T/C","second compound 0.03 µM, first compound 0.0949 µM",17.6%
same,"viability, T/C","second compound 0.03 µM, first compound 0.3 µM",11.6%
same,"viability, T/C","second compound 0.0949 µM, first compound 0.000949 µM",84.5%
same,"viability, T/C","second compound 0.0949 µM, first compound 0.003 µM",77.8%
same,"viability, T/C","second compound 0.0949 µM, first compound 0.00949 µM",68%
same,"viability, T/C","second compound 0.0949 µM, first compound 0.03 µM",38.5%
same,"viability, T/C","second compound 0.0949 µM, first compound 0.0949 µM",14.4%
same,"viability, T/C","second compound 0.0949 µM, first compound 0.3 µM",10.3%
same,"viability, T/C","second compound 0.3 µM, first compound 0.000949 µM",84.4%
same,"viability, T/C","second compound 0.3 µM, first compound 0.003 µM",70.1%
same,"viability, T/C","second compound 0.3 µM, first compound 0.00949 µM",56.5%
same,"viability, T/C","second compound 0.3 µM, first compound 0.03 µM",25.4%
same,"viability, T/C","second compound 0.3 µM, first compound 0.0949 µM",12.4%
same,"viability, T/C","second compound 0.3 µM, first compound 0.3 µM",7.96%
